Biological target: human PKR1 receptors (Homo sapiens (Human), UniProt Q8TCW9)
Assay: PKR1 antagonist assay: block of PK1-mediated intracellular calcium release (FLIPR Tetra)
Format: cell-based
Details: RBL2H3 cells expressing human PKR1; stimulation with PK1 at EC80; calcium fluorescence
Method: Prokineticin receptor 1 (PKR1) antagonists may be functionally assessed by measurement of change in intracellular calcium levels induced by Gq mediated increase in inositol triphosphate (IP3) levels. The ability of a compound to block the intracellular release of calcium mediated by PK1 in RBL2H3 cells expressing human PKR1 receptors is determined as a measure of the compound's antagonist activity in vitro.
Approximately 10,000 cells per assay well are seeded in normal culture medium in a 384 well plate (Corning). Twenty-four hours after seeding, the cells are loaded with a calcium sensitive fluorescent dye by replacing the culture medium with assay buffer (1× Hanks buffered saline, 25 mM HEPES, 0.1% w/v fatty acid free BSA (bovine serum albumin), pH 7.4) containing 1 mM probenecid and 1× Calcium 5 Reagent (Molecular Devices). Cells are incubated at 37° C. for 1 hour to allow for dye uptake.
To test for antagonist activity, test compounds at a final concentration range between 0.32 nM-10 μM (diluted in assay buffer) are added to the assay wells and allowed to incubate for 10 minutes prior to stimulation with PK1. After incubation with test compounds the assay plate is placed in a FLIPR Tetra (Molecular Devices) and PK1 (diluted in assay buffer) is added at the determined EC80 concentration (final). Ligand-dependent changes in intracellular calcium levels are determined by measuring changes in fluorescence of the dye at […] following excitation at 485 nm.

Sequence of human PKR1 receptors (Q8TCW9 whole entry): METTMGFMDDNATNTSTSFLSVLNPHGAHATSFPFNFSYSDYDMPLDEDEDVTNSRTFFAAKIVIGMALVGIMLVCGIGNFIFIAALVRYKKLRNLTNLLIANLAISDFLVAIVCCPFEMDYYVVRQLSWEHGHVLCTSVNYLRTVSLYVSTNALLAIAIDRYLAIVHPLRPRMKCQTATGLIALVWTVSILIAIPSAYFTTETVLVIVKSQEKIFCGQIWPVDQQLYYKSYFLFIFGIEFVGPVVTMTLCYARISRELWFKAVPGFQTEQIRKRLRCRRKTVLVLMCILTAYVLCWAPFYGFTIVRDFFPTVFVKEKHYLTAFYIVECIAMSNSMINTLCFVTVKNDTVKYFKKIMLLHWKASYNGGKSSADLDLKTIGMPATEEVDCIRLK

| IC50 | Structure (SMILES) |
| --- | --- |
| 2440 nM | O=C(c1cn[nH]c1)N1CCCC(c2ccc(Cl)cc2C(F)(F)F)C1 (stereo not shown) [Example 96, 3-[4-Chloro-2-(trifluoromethyl)phenyl]-1-[(1H-pyrazol-4-yl)carbonyl]piperidine] |
| 1430 nM | COc1ccc(C2CCCCN(C(=O)c3cnnc(N(C)C)c3)C2)cc1 (stereo not shown) [Example 114, 5-{[3-(4-Methoxyphenyl)azepan-1-yl]carbonyl}-N,N-dimethylpyridazin-3-amine] |
| 130 nM | CNc1cc(C(=O)N2CCCC(c3ccc(OC)cc3C(F)(F)F)C2)cnn1 (stereo not shown) [Example 81, 5-({3-[4-Methoxy-2-(trifluoromethyl)phenyl]piperidin-1-yl}carbonyl)-N-methylpyridazin-3-amine] |
| 8220 nM | CCCN(C)c1cc(C(=O)N2CCCC(c3ccc(C)cc3)C2)ccn1 (stereo not shown) [Example 39, N-Methyl-4-{[3-(4-methylphenyl)piperidin-1-yl]carbonyl}-N-propylpyridin-2-amine] |
| 510 nM | CCc1cc(C(=O)N2CCCC(c3ccc(Cl)cc3)C2)ccn1 (stereo not shown) [Example 52, 4-{[3-(4-Chlorophenyl)piperidin-1-yl]carbonyl}-2-ethylpyridine] |
| 5510 nM | COc1cccc([C@@H]2CCCN(C(=O)c3ccnc(N(C)C)c3)C2)c1 [Example 36, 4-{[(3S)-3-(3-Methoxyphenyl)piperidin-1-yl]carbonyl}-N,N-dimethylpyridin-2-amine] |
| 170 nM | Cc1cc(Cl)ccc1C1CCCN(C(=O)c2cnn(C)c2)C1 (stereo not shown) [Example 94, 3-(4-Chloro-2-methylphenyl)-1-[(1-methyl-1H-pyrazol-4-yl)carbonyl]piperidine] |
| 310 nM | Cc1ccc(C2CCCN(C(=O)c3ccnc(N(C)C)c3)C2)cc1 (single isomer, unassigned) [Example 51, N,N-Dimethyl-4-{[3-(4-methylphenyl)piperidin-1-yl]carbonyl}pyridin-2-amine] |
| 130 nM | CNc1cc(C(=O)N2CCCC(c3ccc(OC)cc3C)C2)cnn1 (stereo not shown) [Example 79, 5-{[3-(4-Methoxy-2-methylphenyl)piperidin-1-yl]carbonyl}-N-methylpyridazin-3-amine] |
| 430 nM | CNc1cc(C(=O)N2CCCCC(c3ccc(Cl)cc3)C2)ccn1 (stereo not shown) [Example 111, 4-{[3-(4-Chlorophenyl)azepan-1-yl]carbonyl}-N-methylpyridin-2-amine] |
| 1330 nM | Cc1cc(C(=O)N2CCCC(c3ccc(Cl)cc3)C2)cc(C)n1 (stereo not shown) [Example 28, 4-{[3-(4-Chlorophenyl)piperidin-1-yl]carbonyl}-2,6-dimethylpyridine] |
| 170 nM | CCOc1cc(Cl)ccc1C1CCCN(C(=O)c2cnnc(NC)c2)C1 (stereo not shown) [Example 83, 5-{[3-(4-Chloro-2-ethoxyphenyl)piperidin-1-yl]carbonyl}-N-methylpyridazin-3-amine] |
| 660 nM | CCn1cc(C(=O)N2CCCC(c3ccc(Cl)cc3)C2)cn1 (stereo not shown) [Example 90, 3-(4-Chlorophenyl)-1-[(1-ethyl-1H-pyrazol-4-yl)carbonyl]piperidine] |
| 1270 nM | CNc1cc(C(=O)N2CCCCC(c3ccc(OC)cc3)C2)cnn1 (stereo not shown) [Example 112, 5-{[3-(4-Methoxyphenyl)azepan-1-yl]carbonyl}-N-methylpyridazin-3-amine] |
| 1180 nM | CNc1cc(C(=O)N2CCC[C@@H](c3ccc(Cl)cc3C)C2)cnn1 (single isomer, unassigned) [Example 73] |
| 1170 nM | Cc1cc(C(=O)N2CCCC(c3ccc(Cl)cc3C(F)(F)F)C2)ccn1 (stereo not shown) [Example 10, 4-({3-[4-Chloro-2-(trifluoromethyl)phenyl]piperidin-1-yl}carbonyl)-2-methylpyridine] |
| 450 nM | CNc1cc(C(=O)N2CCCCC(c3ccc(OC)cc3)C2)ccn1 (stereo not shown) [Example 110, 4-{[3-(4-Methoxyphenyl)azepan-1-yl]carbonyl}-N-methylpyridin-2-amine] |
| 490 nM | COc1cc(C(=O)N2CCCC(c3ccc(Cl)cc3C)C2)ccn1 (stereo not shown) [Example 32, 4-{[3-(4-Chloro-2-methylphenyl)piperidin-1-yl]carbonyl}-2-methoxypyridine] |
| 960 nM | CC(C)n1cc(C(=O)N2CCCC(c3ccc(Cl)cc3)C2)cn1 (stereo not shown) [Example 91, 3-(4-Chlorophenyl)-1-{[1-(propan-2-yl)-1H-pyrazol-4-yl]carbonyl}piperidine] |
| 50 nM | CNc1cc(C(=O)N2CCCC(c3ccc(Cl)cc3C(F)(F)F)C2)ccn1 (stereo not shown) [Example 57, 4-({3-[4-Chloro-2-(trifluoromethyl)phenyl]piperidin-1-yl}carbonyl)-N-methylpyridin-2-amine] |

| IC50 | Structure (SMILES) |
| --- | --- |
| 80 nM | CNc1cc(C(=O)N2CCCC(c3ccc(Cl)cc3C(F)(F)F)C2)cnn1 (stereo not shown) [Example 76, 5-({3-[4-Chloro-2-(trifluoromethyl)phenyl]piperidin-1-yl}carbonyl)-N-methylpyridazin-3-amine] |
| 1220 nM | CN(C)c1cc(C(=O)N2CCCC(c3ccc(F)cc3)C2)ccn1 (stereo not shown) [Example 19, 4-{[3-(4-Fluorophenyl)piperidin-1-yl]carbonyl}-N,N-dimethylpyridin-2-amine] |
| 3000 nM | CNc1cc(C(=O)N2CCCC(c3ccc(C(F)(F)F)cc3OC)C2)cnn1 (stereo not shown) [Example 78, 5-({3-[2-Methoxy-4-(trifluoromethyl)phenyl]piperidin-1-yl}carbonyl)-N-methylpyridazin-3-amine] |
| 5530 nM | CCN(C)c1cc(C(=O)N2CCCC(c3ccc(C)cc3)C2)ccn1 (stereo not shown) [Example 37, N-Ethyl-N-methyl-4-{[3-(4-methylphenyl)piperidin-1-yl]carbonyl}pyridin-2-amine] |
| 40 nM | CNc1cc(C(=O)N2CCCC(c3ccc(OC)cc3C)C2)ccn1 (stereo not shown) [Example 63, 4-{[3-(4-Methoxy-2-methylphenyl)piperidin-1-yl]carbonyl}-N-methylpyridin-2-amine] |
| 420 nM | Cc1ccc(C2CCCN(C(=O)c3ccnc(N(C)C)c3)C2)cc1 (stereo not shown) [Example 49, N,N-Dimethyl-4-{[3-(4-methylphenyl)piperidin-1-yl]carbonyl}pyridin-2-amine] |
| 270 nM | Cc1cc(Cl)ccc1C1=CN(C(=O)c2ccnc(N(C)C)c2)CCC1 [Example 105, 4-{[5-(4-Chloro-2-methylphenyl)-1,2,3,4-tetrahydropyridin-1-yl]carbonyl}-N,N-dimethylpyridin-2-amine] |
| 170 nM | CCn1cc(C(=O)N2CCCC(c3ccc(Cl)cc3C(F)(F)F)C2)cn1 (stereo not shown) [Example 98, 3-[4-Chloro-2-(trifluoromethyl)phenyl]-1-[(1-ethyl-1H-pyrazol-4-yl)carbonyl]piperidine] |
| 1360 nM | Cc1cc(Cl)ccc1C1(O)CCCN(C(=O)c2ccnc(N(C)C)c2)C1 (stereo not shown) [Example 116, 3-(4-Chloro-2-methylphenyl)-1-{[2-(dimethylamino)pyridin-4-yl]carbonyl}piperidin-3-ol] |
| 440 nM | CNc1cc(C(=O)N2CCCC(c3ccccc3OC)C2)ccn1 (stereo not shown) [Example 56, 4-{[3-(2-Methoxyphenyl)piperidin-1-yl]carbonyl}-N-methylpyridin-2-amine] |
| 290 nM | CNc1cc(C(=O)N2CCCC(c3ccc(C)cc3)C2)ccn1 (stereo not shown) [Example 11, N-Methyl-4-{[3-(4-methylphenyl)piperidin-1-yl]carbonyl}pyridin-2-amine] |
| 70 nM | CNc1cc(C(=O)N2CCCC(c3ccc(Cl)cc3C)C2)cnn1 (stereo not shown) [Example 71, 5-{[3-(4-Chloro-2-methylphenyl)piperidin-1-yl]carbonyl}-N-methylpyridazin-3-amine] |
| 1540 nM | COc1ccc(C2CCCN(C(=O)c3cn(C)nc3N)C2)c(C)c1 (stereo not shown) [Example 102, 4-{[3-(4-Methoxy-2-methylphenyl)piperidin-1-yl]carbonyl}-1-methyl-1H-pyrazol-3-amine] |
| 30 nM | CNc1cc(C(=O)N2CCCC(c3ccc(Cl)cc3C)C2)ccn1 (stereo not shown) [Example 31, 4-{[3-(4-Chloro-2-methylphenyl)piperidin-1-yl]carbonyl}-N-methylpyridin-2-amine] |
| 2800 nM | Cc1ccc(C2CCCN(C(=O)c3ccnc(C)c3)C2)cc1 (stereo not shown) [Example 12, 2-Methyl-4-{[3-(4-methylphenyl)piperidin-1-yl]carbonyl}pyridine] |
| 1600 nM | CN(C)c1cc(C(=O)N2CCCC(c3ccccc3OC(F)(F)F)C2)ccn1 (stereo not shown) [Example 60, N,N-Dimethyl-4-({3-[2-(trifluoromethoxy)phenyl]piperidin-1-yl}carbonyl)pyridin-2-amine] |
| 1540 nM | Cc1cc(Cl)cc(C)c1C1CCCN(C(=O)c2ccnc(N(C)C)c2)C1 (stereo not shown) [Example 68, 4-{[3-(4-Chloro-2,6-dimethylphenyl)piperidin-1-yl]carbonyl}-N,N-dimethylpyridin-2-amine] |
| 100 nM | Cn1cc(C(=O)N2CCCC(c3ccc(Cl)cc3C(F)(F)F)C2)cn1 (stereo not shown) [Example 97, 3-[4-Chloro-2-(trifluoromethyl)phenyl]-1-[(1-methyl-1H-pyrazol-4-yl)carbonyl]piperidine] |
| 110 nM | CCn1cc(C(=O)N2CCCC(c3ccc(Cl)cc3C)C2)cn1 (stereo not shown) [Example 92, 3-(4-Chloro-2-methylphenyl)-1-[(1-ethyl-1H-pyrazol-4-yl)carbonyl]piperidine] |
| 990 nM | Cc1ccc(C2CCCN(C(=O)c3ccnc(N(C)C)c3)C2)cc1 (single isomer, unassigned) [Example 50, N,N-Dimethyl-4-{[3-(4-methylphenyl)piperidin-1-yl]carbonyl}pyridin-2-amine] |

Source: US9790201B2, “Piperidine and azepine derivatives as prokineticin receptor modulators” (TAKEDA PHARMACEUTICAL COMPANY LIMITED, priority 2013, dated 2017)
